Experimental findings from patent US20180273531A1, “PYRIMIDINE COMPOUND AND MEDICAL USE THEREOF” (Japan Tobacco Inc., priority 2004, published 2018) are described below.

The structures appear in SMILES notation.

The first assay relates to p15 protein. Briefly: Evaluation of p15 induction activity (Western blotting). The format is cell-based. The following applies: test substance 0.1 μM, 24 hrs, ACHN cells or HT-29 cells, compared to DMSO, n=2. As to the method: ACHN cells or HT-29 cells were cultured in a 6 well plate at 2.5×10^5 cells/1.8 mL/well for 24 hrs, then a test substance (0.1 μM) dissolved in DMSO was added. After 24 hrs, cells were detached using trypsin-EDTA (ethylene diamine tetraacetic acid) and solubilized with NuPAGE LDS sample buffer (Invitrogen). Using an RC DC protein assay kit (BIO-RAD), the protein concentration of the sample was quantitated, and a sample in an amount corresponding to 10 μg of BSA (bovine serum albumin) was analyzed by Western blotting using an anti-p15 antibody. The density of the band stained with the anti-p15 antibody was measured by a densitometer to quantify the amount of p15 protein. As a control, DMSO was used and the test was performed with n=2 and the average protein amount was determined.
For orientation: In western blotting, separated proteins are transferred to a membrane and probed.
One may read the fold induction as the signal under treatment as a multiple of the control signal. Turning to `Cn1c(=O)cc(Nc2ccc(F)cc2)c2c(=O)n(-c3ccccc3)c(=O)n(-c3ccccc3)c21` [Example 1-8], the fold induction at 0.1 µM is at least 1.5.

On to `Cn1c(=O)cc(Nc2ccccc2)c2c(=O)n(-c3ccccc3)c(=O)n(-c3ccccc3)c21` [Example 1-12], for which the fold induction at 0.1 µM is at least 1.5.

With `Cn1c(=O)cc(Nc2ccc3c(c2)OCO3)c2c(=O)n(-c3ccccc3)c(=O)n(-c3ccccc3)c21` [Example 1-16], the fold induction at 0.1 µM is at least 1.5.

In turn, `Cn1c(=O)cc(Nc2ccc(Cl)c(Cl)c2)c2c(=O)n(-c3ccccc3)c(=O)n(-c3ccccc3)c21` [Example 1-17] had a fold induction at 0.1 µM of at least 1.5.

The next assay has as its system colorectal cancer cell line HT-29 cells. Briefly: Growth inhibitory effect against cancer cell lines (3H-thymidine uptake), HT-29. The format is cell-based. As to conditions: Homo sapiens, HT-29, inhibition of 3H-thymidine uptake; test substance 18 hrs, then 3H-thymidine 6 hrs; triplicate. As to the method: Renal cancer cell line ACHN cell or colorectal cancer cell line HT-29 cells were cultured in a 96 well plate at 1.0×10^4 cells/90 μL/well for 24 hrs, then a test substance dissolved in DMSO (dimethyl sulfoxide) was added. After 18 hrs, ^3H-thymidine (0.25 μCi/well) was added and the cells were cultured for 6 hrs. Using a cell harvester, the cells were recovered on a UniFilter-96 GF/B glass filter and the ^3H radioactivity uptaken by the cells was measured by TopCount (Packard). As a control, DMSO was used and the activity of the test substance was expressed in the concentration (IC50) necessary for inhibiting ^3H radioactivity uptaken by the cell to 50% of that of the control group. The measurements were made in triplicate.
As a reminder, the IC50 is the concentration at which inhibition is half-maximal. Turning to `COc1ccc(Nc2cc(=O)n(C)c3c2c(=O)n(C2CC2)c(=O)n3-c2ccccc2)cc1` [Example 1-129], the IC50 was 100 to 1000 nM.

With `C=CCn1c(=O)c2c(Nc3ccc(N(C)C)cc3)cc(=O)n(C)c2n(-c2ccccc2)c1=O` [Example 1-140], the IC50 lay in the range of 100 to 1000 nM.

Compound `COc1ccccc1-n1c(=O)n(C2CC2)c(=O)c2c(Nc3ccc(Br)cc3)cc(=O)n(C)c21` [Example 1-159] displayed an IC50 of 100 to 1000 nM.

Compound `CCn1c(=O)c2c(Nc3ccc(Br)cc3F)cc(=O)n(C)c2n(-c2ccccc2)c1=O` [Example 1-164] displayed an IC50 of 10 to 100 nM.

`Cn1c(=O)cc(Nc2ccc(Cl)cc2F)c2c(=O)n(C3CC3)c(=O)n(-c3ccccc3)c21` [Example 1-171] registered a 50% inhibitory concentration (IC50) of 10 to 100 nM.

Compound `COc1cc(Br)ccc1Nc1cc(=O)n(C)c2c1c(=O)n(C1CC1)c(=O)n2-c1ccccc1` [Example 1-189] had an IC50 of 100 to 1000 nM.

In the case of `COc1cccc(-n2c(=O)n(C3CC3)c(=O)c3c(Nc4ccc(Br)cc4)cc(=O)n(C)c32)c1` [Example 1-190], the IC50 lay in the range of 100 to 1000 nM.

Regarding `Cn1c(=O)cc(Nc2ccc(Br)cc2F)c2c(=O)n(C3CC3)c(=O)n(-c3cccc(CCC(=O)O)c3)c21` [Example 1-201], the IC50 is 100 to 1000 nM.

With `CN1CCN(c2cccc(-n3c(=O)n(C4CC4)c(=O)c4c(Nc5ccc(Br)cc5F)cc(=O)n(C)c43)c2)CC1` [Example 1-206], the IC50 lay within 100 to 1000 nM.

For the compound `COc1ccc(Nc2cc(=O)n(C)c3c2c(=O)n(C2CC2)c(=O)n3-c2ccccc2)c(Br)c1` [Example 1-211], the IC50 was in the range of 100 to 1000 nM.

Turning to `Cn1c(=O)cc(Nc2ccc(Br)cc2F)c2c(=O)n(C3CC3)c(=O)n(-c3cccc(N4CCCCC4=O)c3)c21` [Example 1-214], the IC50 fell in the range of 10 to 100 nM.

As for `Cn1c(=O)cc(Nc2ccc(Br)cc2F)c2c(=O)n(C3CC3)c(=O)n(-c3cccc(N4CCCC4)c3)c21` [Example 1-215], the IC50 is 100 to 1000 nM.

As to `Cn1c(=O)cc(Nc2ccc(Br)cc2F)c2c(=O)n(C3CC3)c(=O)n(-c3cccc(N4CCCCC4)c3)c21` [Example 1-216], the IC50 lay within 100 to 1000 nM.

As to `CCN(C)c1ccc(Nc2cc(=O)n(C)c3c2c(=O)n(C2CC2)c(=O)n3-c2ccccc2)c(F)c1` [Example 1-217], the 50% inhibitory concentration (IC50) is 100 to 1000 nM.

The compound `Cn1c(=O)cc(Nc2ccc(Br)cc2F)c2c(=O)n(C3CC3)c(=O)n(-c3ccc(S(C)(=O)=O)cc3)c21` [Example 1-225] returned an IC50 of 100 to 1000 nM.

Consider `CN(C)CCCOc1cccc(-n2c(=O)n(C3CC3)c(=O)c3c(Nc4ccc(Br)cc4F)cc(=O)n(C)c32)c1` [Example 1-227], for which the IC50 fell in the range of 10 to 100 nM.

The compound `CC(C)c1ccc(Nc2cc(=O)n(C)c3c2c(=O)n(C2CC2)c(=O)n3-c2ccccc2)cc1` [Example 1-229] displayed an IC50 of 100 to 1000 nM.

Turning to `CCc1ccc(Nc2cc(=O)n(C)c3c2c(=O)n(C2CC2)c(=O)n3-c2ccccc2)cc1` [Example 1-230], the IC50 lay within 100 to 1000 nM.

On to `Cn1c(=O)cc(Nc2ccc(Br)cc2F)c2c(=O)n(C3CC3)c(=O)n(-c3cccc(OCCN4CCCC4)c3)c21` [Example 1-233], for which the IC50 is 100 to 1000 nM.

Consider `Cn1c(=O)cc(Nc2ccc(Br)cc2F)c2c(=O)n(C3CC3)c(=O)n(-c3cccc(OCCN4CCCCC4)c3)c21` [Example 1-234], for which the IC50 fell in the range of 100 to 1000 nM.

On to `CCN(CC)CCOc1cccc(-n2c(=O)n(C3CC3)c(=O)c3c(Nc4ccc(Br)cc4F)cc(=O)n(C)c32)c1` [Example 1-235], for which the IC50 lay in the range of 100 to 1000 nM.

`CN1CCN(CCCOc2cccc(-n3c(=O)n(C4CC4)c(=O)c4c(Nc5ccc(Br)cc5F)cc(=O)n(C)c43)c2)CC1` [Example 1-236] yielded an IC50 of 100 to 1000 nM.

For the compound `CCn1c(=O)c2c(Nc3ccc(Br)cc3F)cc(=O)n(C)c2n(-c2cccnc2)c1=O` [Example 1-244], the IC50 lay in the range of 100 to 1000 nM.

Take `CN(C)CCCc1cccc(-n2c(=O)n(C3CC3)c(=O)c3c(Nc4ccc(Br)cc4F)cc(=O)n(C)c32)c1` [Example 1-252]: the IC50 lay in the range of 10 to 100 nM.

With `Cn1c(=O)cc(Nc2ccc(Br)cc2F)c2c(=O)n(C3CC3)c(=O)n(-c3cccc(CCCN4CCCCC4)c3)c21` [Example 1-255], the IC50 lay in the range of 100 to 1000 nM.

Turning to `CCCc1ccc(Nc2cc(=O)n(C)c3c2c(=O)n(C2CC2)c(=O)n3-c2ccccc2)c(F)c1` [Example 1-258], the half-maximal inhibitory concentration (IC50) fell in the range of 100 to 1000 nM.

Take `Cn1c(=O)cc(Nc2ccc(C(F)(F)F)cc2)c2c(=O)n(C3CC3)c(=O)n(-c3ccccc3)c21` [Example 1-273]: the IC50 was 100 to 1000 nM.

Consider `CN(C)CC(=O)Nc1cccc(-n2c(=O)n(C3CC3)c(=O)c3c(Nc4ccc(Br)cc4F)cc(=O)n(C)c32)c1` [Example 1-277], for which the IC50 fell in the range of 10 to 100 nM.

In turn, `Cn1c(=O)cc(Nc2ccc(Br)cc2F)c2c(=O)n(C3CC3)c(=O)n(-c3cccc(S(N)(=O)=O)c3)c21` [Example 1-288] yielded an IC50 of 10 to 100 nM.

Consider `CNC(=O)c1cccc(-n2c(=O)n(C3CC3)c(=O)c3c(Nc4ccc(Br)cc4F)cc(=O)n(C)c32)c1` [Example 1-292], for which the IC50 fell in the range of 10 to 100 nM.

On to `Cn1c(=O)cc(Nc2ccc(Br)cc2F)c2c(=O)n(C3CC3)c(=O)n(-c3cccc(NC(=O)CCO)c3)c21` [Example 1-305], for which the IC50 was in the range of 10 to 100 nM.

`Cn1c(=O)cc(Nc2ccc(Br)cc2F)c2c(=O)n(C3CC3)c(=O)n(-c3cccc(NS(=O)(=O)CCN)c3)c21` [Example 1-313]: the IC50 lay within 10 to 100 nM.

As to `CN(C)C(=O)Nc1cccc(-n2c(=O)n(C3CC3)c(=O)c3c(Nc4ccc(Br)cc4F)cc(=O)n(C)c32)c1` [Example 1-324], the IC50 lay within 10 to 100 nM.

Take `Cn1c(=O)cc(Nc2ccc(CC(F)F)cc2)c2c(=O)n(C3CC3)c(=O)n(-c3ccccc3)c21` [Example 1-326]: the IC50 was in the range of 100 to 1000 nM.

`Cn1c(=O)cc(Nc2ccc(Br)cc2F)c2c(=O)n(C3CC3)c(=O)n(-c3cccc(NCCN)c3)c21` [Example 1-334] yielded an IC50 of 100 to 1000 nM.

`CC(=O)Nc1ccc(-n2c(=O)n(C3CC3)c(=O)c3c(Nc4ccc(Br)cc4F)n(C)c(=O)c(C)c32)cc1` [Example 4-4] displayed an IC50 of 100 to 1000 nM.

The compound `CC(=O)Nc1cccc(-n2c(=O)n(C3CC3)c(=O)c3c(Nc4ccccc4F)n(C)c(=O)c(C)c32)c1` [Example 4-7] yielded an IC50 of 100 to 1000 nM.

`CCCCC(=O)NCCC(=O)Nc1cccc(-n2c(=O)n(C3CC3)c(=O)c3c(Nc4ccccc4F)n(C)c(=O)c(C)c32)c1` [Example 4-13] yielded an IC50 of 100 to 1000 nM.

In the case of `CC(=O)Nc1cccc(-n2c(=O)n(C3CC3)c(=O)c3c(Nc4ccc(C5CCCC5)cc4F)n(C)c(=O)c(C)c32)c1` [Example 4-57], the IC50 lay in the range of 100 to 1000 nM.

Consider `COc1ccc(-n2c(=O)n(C3CC3)c(=O)c3c(Nc4ccc(I)cc4F)n(C)c(=O)c(C)c32)cc1NC(C)=O` [Example 4-63], for which the IC50 was in the range of 10 to 100 nM.

Take `CCc1ccc(Nc2c3c(=O)n(C4CC4)c(=O)n(-c4ccc(NC(C)=O)cc4)c3c(C)c(=O)n2C)c(F)c1` [Example 4-75]: the IC50 lay within 10 to 100 nM.

Regarding `Cc1c(=O)n(C)c(Nc2ccc(Br)cc2)c2c(=O)n(CCO)c(=O)n(-c3ccccc3)c12` [Example 4-85], the IC50 lay in the range of 100 to 1000 nM.

The compound `CC(=O)N(c1cccc(-n2c(=O)n(C3CC3)c(=O)c3c(Nc4ccc(I)cc4F)n(C)c(=O)c(C)c32)c1)S(C)(=O)=O` [Example 4-133] came in with an IC50 of 100 to 1000 nM.

In the case of `CC(=O)Nc1cccc(-n2c(=O)n(CCCO)c(=O)c3c(Nc4ccc(I)cc4F)n(C)c(=O)c(C)c32)c1` [Example 4-135], the IC50 was 100 to 1000 nM.

As to `CC(=O)N(c1cccc(-n2c(=O)n(C3CC3)c(=O)c3c(Nc4ccc(I)cc4F)n(C)c(=O)c(C)c32)c1)S(=O)(=O)N(C)C` [Example 4-138], the 50% inhibitory concentration (IC50) was 100 to 1000 nM.

Take `CC(=O)N(C(C)=O)c1cccc(-n2c(=O)n(C3CC3)c(=O)c3c(Nc4ccc(I)cc4F)n(C)c(=O)c(C)c32)c1` [Example 4-140]: the IC50 is 100 to 1000 nM.

Consider `Cc1c(=O)n(C)c(Nc2ccc(I)cc2F)c2c(=O)n(CCCO)c(=O)n(-c3cccc(NS(C)(=O)=O)c3)c12` [Example 4-145], for which the IC50 lay in the range of 100 to 1000 nM.

In turn, `Cc1c(=O)n(C)c(Nc2ccc(I)cc2F)c2c(=O)n(CCCO)c(=O)n(-c3ccc4oc(=O)[nH]c4c3)c12` [Example 4-146] yielded an IC50 of 100 to 1000 nM.

On to `Cc1c(=O)n(C)c(Nc2ccc(I)cc2F)c2c(=O)n(CCCO)c(=O)n(-c3ccccc3)c12` [Example 4-147], for which the IC50 was in the range of 100 to 1000 nM.

In turn, `Cc1c(=O)n(C)c(Nc2ccc(I)cc2F)c2c(=O)n(CCCO)c(=O)n(-c3cccc(NC(=O)CO)c3)c12` [Example 4-148] showed an IC50 of 100 to 1000 nM.
